Entries after “also recorded” stand apart in the source; their conditions may differ.

This test concerns serum triglyceride levels in male ICR mice. Nature of the test: Oral administration of peptides to determine inhibition of serum triglyceride level elevation after olive oil feeding. To be noted: for Serum Triglyceride: male ICR mice fasted overnight, olive oil 250 mg by gastric intubation, peptide 1.0 mg/mouse orally one hour after lipid, blood collected after two hours; for % Decrease (serum triglyceride) / Activity in lowering elevated serum triglyceride levels compared with the corresponding natural reference peptide: male ICR mice, peptide 1.0 mg/mouse orally; for % Decrease (serum triglyceride): olive oil 250 mg, versus Olive Oil Only; for Activity in lowering elevated serum triglyceride levels compared with the corresponding natural reference peptide: olive oil load, comparison in words. The format is in vivo. As to the method:
Olive oil (250 mg) was administered via gastric intubation to male ICR mice (6-week old, body weight: 20 g), which were fasted overnight. The peptides were dissolved in 0.1 ml saline solution and administered orally one hour after lipid administration. For the control group, 0.1 ml of saline solution was administered per mouse. After two hours, blood was collected from the orbital vein under ether anesthesia and the serum was separated by centrifugation (3000 rpm, 30 min, 1° C.). Serum triglyceride levels were assayed using commercially available methods (e.g. INFINITY (Registered Trade Mark) triglycerides reagent; Sigma Chemical Co.). The results were compared with L-Val-L-Val-L-Tyr-L-Pro (Reference Peptide 1), L-Val-L-Tyr-L-Pro (Reference Peptide 2), and L-Val-L-Thr-L-Leu (Reference Peptide 3) and shown in Table 1.

As to “D-Leu D-Thr D-Val C-NH2 [Retro Inverso Polypeptide 3]”, the “Serum Triglyceride” value is on record as 294.6 ± 33.8 mg/100 ml; the “% Decrease (serum triglyceride)” value worked out at 28.7%; the “Activity in lowering elevated serum triglyceride levels compared with the corresponding natural reference peptide” value is “higher activities in lowering elevated serum triglyceride levels than Reference 2 and 3, respectively”. For the same substance, the “Activity in lowering elevated serum triglyceride levels compared with the corresponding natural reference peptide” value (listed as D-Leu D-Thr D-Val) is recorded as “substantially exceed the activity of the corresponding natural oligopeptide”.

Regarding “D-Pro D-Tyr D-Val C-NH2 [Retro Inverso Polypeptide 2]”, the “Serum Triglyceride” value came out at 231.8 ± 27.6 mg/100 ml, the “% Decrease (serum triglyceride)” value turned out to be 50.8% and the “Activity in lowering elevated serum triglyceride levels compared with the corresponding natural reference peptide” value is on record as “substantially exceed the activity of the corresponding natural oligopeptide”.

As for “D-Pro D-Tyr D-Val D-Val C-NH2 [Retro Inverso Polypeptide 1]”, the “Serum Triglyceride” value turned out to be 313.7 ± 45.9 mg/100 ml; the “% Decrease (serum triglyceride)” value worked out at 22.0%; the “Activity in lowering elevated serum triglyceride levels compared with the corresponding natural reference peptide” value was “higher activities in lowering elevated serum triglyceride levels than Reference 2 and 3, respectively; also recorded: about half of Reference Peptide 1”.

In the case of “L-Val-L-Thr-L-Leu [Ref. Peptide 3, reference compound]”, the “Serum Triglyceride” value worked out at 352.7 ± 35.6 mg/100 ml and the “% Decrease (serum triglyceride)” value came to 8.3%.

On to “L-Val-L-Tyr-L-Pro [Ref. Peptide 2, reference compound]”, for which the “Serum Triglyceride” value is on record as 407.7 ± 42.0 mg/100 ml and the “% Decrease (serum triglyceride)” value was found to be 0%.

On to “L-Val-L-Val-L-Tyr-L-Pro [Ref. Peptide 1, reference compound]”, for which the “Serum Triglyceride” value turned out to be 244.7 ± 25.5 mg/100 ml and the “% Decrease (serum triglyceride)” value is recorded as 46.3%.

Values taken from patent publication US7314867B2, “Pharmaceutical composition comprising a retro-iverso isomer peptide” (priority 2002, dated 2008).
